In one data set the target is T1, BRD7 (Homo sapiens, UniProt Q9NPI1).
T1 construct: Western blot analysis of BRD9 and BRD7 levels after treatment of HeLa cells; endogenous in cells; host or cells: HeLa
T1 sequence (Q9NPI1 1-651): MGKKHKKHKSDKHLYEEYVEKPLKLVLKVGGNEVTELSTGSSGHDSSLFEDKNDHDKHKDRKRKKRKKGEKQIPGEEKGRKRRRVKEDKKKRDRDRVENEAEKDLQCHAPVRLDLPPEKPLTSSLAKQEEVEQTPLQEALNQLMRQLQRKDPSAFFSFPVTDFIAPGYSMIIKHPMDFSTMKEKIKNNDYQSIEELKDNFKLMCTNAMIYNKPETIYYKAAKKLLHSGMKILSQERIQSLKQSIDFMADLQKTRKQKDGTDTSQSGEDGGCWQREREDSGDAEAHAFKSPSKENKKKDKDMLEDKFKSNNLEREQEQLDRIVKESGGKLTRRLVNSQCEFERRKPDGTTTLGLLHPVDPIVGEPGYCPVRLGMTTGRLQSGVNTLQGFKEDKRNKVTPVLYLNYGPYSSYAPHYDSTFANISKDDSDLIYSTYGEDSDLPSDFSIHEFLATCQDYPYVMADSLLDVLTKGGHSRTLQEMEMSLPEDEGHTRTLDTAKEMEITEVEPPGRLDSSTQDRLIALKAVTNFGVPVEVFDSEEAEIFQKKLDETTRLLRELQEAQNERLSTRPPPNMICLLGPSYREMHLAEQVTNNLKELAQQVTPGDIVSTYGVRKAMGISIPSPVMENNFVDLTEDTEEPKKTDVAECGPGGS
Briefly: Western blot of BRD7 levels in HeLa cells after compound treatment. Format: cell-based. The settings on record: 1 μM compound; for BRD7 degradation: HeLa cells. Here is the method:
HeLa and Hek293 cells were seeded at either 0.3 × 10^6 or 0.5 × 10^6 cells per well in 6-well plate in 2 mL of medium. At 80% confluency, cells were treated with compounds at the desired concentration, with final DMSO concentration of 0.1% v/v. Cells were incubated at 37 °C and 5% of CO2 for the desired time before harvesting. For protein extraction from adherent cells, cells were washed twice with DPBS (Gibco) and lysed with RIPA buffer (Sigma-Aldrich), supplemented with cOmplete Mini EDTA-free protease inhibitor cocktail (Roche). Insoluble material was removed by centrifugation at 14 000 rpm for 15 min at 4 °C. Supernatant was collected and protein concentration was quantified by Bradford assay (Thermo Scientific no. 23200, mean of two replicates). For RI-1 cells, (1–1.5) × 10^6 cells/mL were seeded in 6-well plate in 2 mL of medium. The day after, cells were treated with compounds at the desired concentration, with final DMSO concentration of 0.1% v/v. Before harvesting, cells were incubated at 37 °C and 5% CO2 for the desired time. Cells were washed twice with DPBS (Gibco) and lysed with RIPA buffer (Sigma-Aldrich), supplemented with cOmplete Mini EDTA-free protease inhibitor cocktail (Roche). Lysates were sonicated (10 s) and centrifuged at 14 000 rpm for 20 min at 4 °C. Supernatant was collected, and protein concentration was quantified by Bradford assay (mean of two replicates). For EOL-1 and A-204 cell line, 20 000 cells were seeded in 300 μL per well in a 24-well plate and incubated at 37 °C overnight. Compounds were added from DMSO stock solution using a digital dispenser D300 (Tecan), normalizing for added DMSO, and cells were incubated at 37 °C for 18 h. Medium was removed, and cells were washed with PBS and lysed in 80 μL of lysis buffer (1% Triton, 350 mM KCl, 10 mM Tris, pH 7,4, phosphatase-protease inhibitor cocktail (Thermo Scientific no. 1861281), 10 mM DTT, Benzonase 0.5 μL/ml (Novagen no. 70746 10KU, 25 U/μL)) for 30 min on ice before insoluble debris was pelleted by centrifugation.
Proteins were resolved by SDS–PAGE on NuPage 4–12% Bis-Tris Midi Gel (Invitrogen) and transferred to Amersham Protran 0.45 NC nitrocellulose membrane (GE Healthcare) using wet transfer. The membrane was blocked with 5% w/v milk in Tris-buffered saline (TBS) with 0.1% w/v Tween-20. The following primary antibodies at the given concentration were used: anti β-actin (Cell Signaling Technology, 4970S, 13E5) 1:2000, anti-Brd9 (Bethyl A303-781A) 1:1000, anti-Brd7 (Bethyl A302-304A) 1:1000, VHL rabbit Ab (Cell Signaling Technology, no. 68547S) 1:1000, anti-CRBN (Novus Bio, NBP 1-9-1810) 1:1000, anti-actin hFAB rhodamine antibody, Bio-Rad, no. 12004164. Following incubation with horseradish peroxidase-conjugated secondary antibody (Cell Signaling Technology) or IRDye secondary antibody (Licor), bands were developed using Amersham ECL Prime Western blotting detection kit on Amersham Hyperfilm ECL film (Amersham) or ChemiDoc imaging system (Bio-Rad). ImageJ software was used for band quantification, and the last was reported as relative amount as ratio of each protein band relative to the lane’s loading control. Then the values obtained were normalized to 0.1% DMSO vehicle control. Alternatively, protein levels were determined on a WES capillary electrophoresis instrument (Proteinsimple) using a BRD9 antibody (Bethyl A303-781A) and a GAPDH antibody (Abcam no. ab9485) for normalization. DC50 and half-lives were determined by assuming a linear model between the two data points across 50% protein level mark.

The nature of the next data set: Plasma stability, mouse. Format: in vitro ADME. Particulars: 10 µM compound, 37 °C; for half-life at 10 µM: mouse, plasma, pH 7.4, read-out: Plasma stability T 1/2, Mouse. The method, then:
(§1) Test compound (10 µM) was incubated in pre-warmed plasma at 37 ᵒC (that is buffered to pH 7.4 in ratio of 70:30 plasma to buffer). Immediately, at time zero, then at 30, 60, 120, and 180 min, a 50 µL aliquot of the incubation mixture was removed and mixed with 200 µL acetonitrile containing Donepezil as the internal standard (50 ng/ml) to stop the reaction. The samples were centrifuged to sediment the precipitated protein and the plates then sealed prior to UPLC-MS/MS analysis using a Xevo TQ-S Micro (Waters Corporation, USA).
(§2) XLfit (IDBS, UK) was used to calculate the exponential decay and consequently the rate constant (k) from the ratio of peak area of test compound to internal standard at each time point. The half-life was calculated for each test compound from the rate by using the […]
(§3) Parallel Artificial Membrane Permeability Assay (PAMPA)
(§4) PAMPA was performed using a 96-well pre-coated BD Gentest™ PAMPA plate (BD Biosciences, U.K.). Each well was divided into two chambers; donor and acceptor, separated by a lipid-oil-lipid tri-layer constructed in a porous filter. The effective permeability, Pe, of the compound was measured at pH 7.4. Stock solutions (5 mM) of the compound were prepared in DMSO. The compound was then further diluted to 10 µM in phosphate buffered […]
(§5) saline at pH 7.4. […] The compound […]
(§6) dissolved in phosphate buffered saline was then added to the donor side of the membrane and phosphate buffered saline without compound was added to the acceptor side. The PAMPA plate was left at room temperature for 5 h. After which time, an aliquot (100 µL) was then

Another data set in a line: Plasma stability, human. Format: in vitro ADME. The settings on record: 10 µM compound, 37 °C; for half-life at 10 µM: human, plasma, pH 7.4, read-out: Plasma stability T 1/2, Human. The method, then: as §1, §2, §3, §4, §5, §6

Each structure is given as a SMILES string.

Turning to `COc1cc(-c2cn(C)c(=O)c3cnccc23)cc(OC)c1CN1CCN(CCOCCOCC(=O)N[C@H](C(=O)N2C[C@H](O)C[C@H]2C(=O)NCc2ccc(-c3scnc3C)cc2)C(C)(C)C)CC1` [Compound 5, (2S,4R)-1-((S)-2-(2-(2-(2-(4-(2,6-Dimethoxy-4-(2-methyl-1-oxo-1,2-dihydro-2,7-naphthyridin-4-yl)benzyl)piperazin-1-yl)ethoxy)ethoxy)acetamido)-3,3-dimethylbutanoyl)-4-hydroxy-N-(4-(4-methylthiazol-5-yl)benzyl)pyrrolidine-2-carboxamide], the BRD7 degradation entry at BRD7 (4 h) was “at most 20%”; on BRD7 (16 h), at most 30%.

Regarding `COc1cc(-c2cn(C)c(=O)c3cnccc23)cc(OC)c1CN1CCN(CCOCCOCCOc2cc(-c3scnc3C)ccc2CNC(=O)[C@@H]2C[C@@H](O)CN2C(=O)[C@@H](NC(=O)C2(F)CC2)C(C)(C)C)CC1` [Compound 26, (2S,4R)-N-(2-(2-(2-(2-(4-(2,6-Dimethoxy-4-(2-methyl-1-oxo-1,2-dihydro-2,7-naphthyridin-4-yl)benzyl)piperazin-1-yl)ethoxy)ethoxy)ethoxy)-4-(4-methylthiazol-5-yl)benzyl)-1-((S)-2-(1-fluorocyclopropane-1-carboxamido)-3,3-dimethylbutanoyl)-4-hydroxypyrrolidine-2-carboxamide], the remaining activity at 1 µM on BRD7 (4 h, Table 2, % of total protein remaining relative to 0.1% DMSO vehicle, HeLa cell lysates, read-out: BRD7 4 h (%)) is 97%.

Regarding `COc1cc(-c2cn(C)c(=O)c3cnccc23)cc(OC)c1CN1CCN(CCCCCOc2cc(-c3scnc3C)ccc2CNC(=O)[C@@H]2C[C@@H](O)CN2C(=O)[C@@H](NC(=O)C2(F)CC2)C(C)(C)C)CC1` [Compound 51, (2S,4R)-N-(2-((5-(4-(2,6-Dimethoxy-4-(2-methyl-1-oxo-1,2-dihydro-2,7-naphthyridin-4-yl)benzyl)piperazin-1-yl)pentyl)oxy)-4-(4-methylthiazol-5-yl)benzyl)-1-((S)-2-(1-fluorocyclopropane-1-carboxamido)-3,3-dimethylbutanoyl)-4-hydroxypyrrolidine-2-carboxamide], in “Plasma stability, mouse”, the “Plasma stability T 1/2, Mouse” value is given as “high stabilities” and the half-life at 10 µM is above 3 h. Moreover, in the data set “Plasma stability, human”, the “Plasma stability T 1/2, Human” value is on record as “high stabilities” and the half-life at 10 µM was above 3 h.

Turning to `COc1cc(-c2cn(C)c(=O)c3cnccc23)cc(OC)c1CN1CCN(CCCCCOc2cc(-c3scnc3C)ccc2CNC(=O)[C@@H]2C[C@H](O)CN2C(=O)[C@@H](NC(=O)C2(F)CC2)C(C)(C)C)CC1` [cisVZ185], the half-life at 10 µM was above 3 h in the data set “Plasma stability, mouse” and above 3 h in the data set “Plasma stability, human”.
